In assay [1] the test system is Phaeodactylum tricornutum.
Description: The nonpolar algal extracts were harvested from 500 mL cultures when indicated on growth curves, a minimum of 3 days into stationary phase. […] Cells were crushed and nonpolar lipids were extracted by sonication (Fisher Scientific Model 120 Sonic Dismembrator, ThermoFisher, San Jose) for 1 minute in chloroform, followed by chloroform-methanol extractions, washed with PBS butter, and dried under vacuum.^55-60 The crude non-polar algae extracts were then analyzed by ^1H Nuclear Magnetic Resonance (^1H NMR) for verification of TAG presence and examination of the purity of the extract (determination of level of chlorophyll). […]
After the initial weight was recorded, the nonpolar extract set aside for transesterification was dissolved in 3.0 mL of 0.6 M sulfuric acid in methanol and stirred vigorously at 60° C. for 45 minutes. […]
We developed a quick and robust method to screen if the screened compound effect fatty acid saturation levels using ^1H NMR spectroscopy. The amount of saturated fatty acids (SFA), monounsaturated fatty acids (MUFAs), and polyunsaturated fatty acids (PUFAs) was determined using peak area ratios.
Calculated based on ^1H NMR integral ratios for the proton signals for the methyl group of PUFA components vs. the methyl groups of monounsaturated and saturated components.
Assay [2] relates to Nannochloris sp. Briefly: Microplate assay: growth (absorbance 680 nm) and intracellular lipids (Nile Red fluorescence). Format: cell-based. Conditions: for % Increase based on Nile Red Fluorescence Intensity: dissolved in water, added t=day 0; for Nile Red Fluorescence % Increase: initial screening, p<0.05.
Assay [3] addresses fatty acid amide hydrolase (Homo sapiens, UniProt O00519). Conditions: cited from earlier work.
Assay [4] concerns Nannochloropsis oculata.
Description: (§1) Stock cultures were aerated by stirring with bubbling air (homemade manifold with Petco air pump, 2-4% CO2) or by orbital shaking (Thermo Scientific MAXQ 2000) at a constant speed of 150 rpm at 22±3° C. with a 16:8 hour light/dark cycle. Stocks were kept at stationary phase for use. Algae were prepared as dictated by culture center.
(§2) Compounds were selected based on reported biological activity in non-microalgae organisms. To ensure that compounds retained their quality, they were stored under advised conditions after purchasing from the manufacturer. Solutions of all assay compounds were prepared as 10 mM stock solutions by dissolving in DMSO in 2-dram amber vials and then stored in darkness −20° C. 96-well PCR plates were used to create a stock plate layout that was then transferred to the algae microplates. A plate map was used to distribute each compound to a well based on molecule name, collection number, and CAS number. For 20 μM and 200 nM assay plates, 10 mM compound stock in DMSO was diluted into plate maps of 5 mM and 50 μM assay stocks, respectively.
(§3) All materials for assay experiments were autoclaved before each use to maintain axenic algae cultures. Algae species were checked for homogeneity using a TS-100 light microscope (Nikon, Japan). […] Diluted stock solutions were made immediately prior to use for consistency and optimal plate growth. Cell density was measured on a Thermo Scientific Genesys 10S Vis Spectrophotometer (ThermoFisher, San Jose), using a 1 mL cuvette at 680 nm.
(§4) Plates were originally run in triplicate, before replicates were increased to quadruplicate, along with a separate control plate to compare growth. Due to extensive evaporation in exterior wells over time, our unique algae plate layout was designed to use the 60 interior wells out of 96 wells for the experiment. The 36 outer wells were filled with Millipore water and media to prevent evaporation and edge effects in the inner algae wells, as well as serve as blanks. The 60 wells with algae contained a total volume of 251 μL (100 μL of media+DMSO compound stock +150 μL dilute algae stock). For 20 μM and 200 nM assay plates, 10 mM compound stock in DMSO is diluted into plate maps of 5 mM and 50 μM assay stocks, respectively. […] Plates were parafilmed during growth to limit the amount of evaporation that can occur. Plates were numbered, and numerically ordered to ensure they got the same shaker space.
(§5) The shakers are kept at a constant shaking of 150 rpm. Ambient temperature is 22±3° C.
Assay [5] concerns Nannochloropsis salina.
Description: as §1, §2, §3, §4, §5
Assay [6] deals with PTP1b (Homo sapiens, UniProt P18031). The following applies: cited from earlier work.
PTP1b, sequence (P18031 whole entry, species assumed): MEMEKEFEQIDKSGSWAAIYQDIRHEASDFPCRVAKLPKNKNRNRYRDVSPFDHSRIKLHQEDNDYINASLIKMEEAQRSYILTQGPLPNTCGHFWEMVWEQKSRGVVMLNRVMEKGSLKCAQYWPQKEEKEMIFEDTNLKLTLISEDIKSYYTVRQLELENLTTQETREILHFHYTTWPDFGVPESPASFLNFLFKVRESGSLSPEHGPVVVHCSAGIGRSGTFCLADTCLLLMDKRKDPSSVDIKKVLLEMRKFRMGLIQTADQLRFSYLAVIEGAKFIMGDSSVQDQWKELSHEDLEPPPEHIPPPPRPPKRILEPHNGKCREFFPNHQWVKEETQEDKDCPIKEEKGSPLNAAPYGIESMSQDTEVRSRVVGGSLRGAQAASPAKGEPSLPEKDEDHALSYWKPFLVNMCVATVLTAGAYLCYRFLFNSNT
Assay [7] relates to Phaeodactylum tricornutum. Briefly: Microplate assay: growth (absorbance 680 nm) and intracellular lipids (Nile Red fluorescence). Type of assay: cell-based.
For assay [8], the target named is CDK4/cyclin D1 (Homo sapiens, UniProt P11802). Conditions: cited from earlier work.
CDK4/cyclin D1, sequence (P11802 whole entry, species assumed): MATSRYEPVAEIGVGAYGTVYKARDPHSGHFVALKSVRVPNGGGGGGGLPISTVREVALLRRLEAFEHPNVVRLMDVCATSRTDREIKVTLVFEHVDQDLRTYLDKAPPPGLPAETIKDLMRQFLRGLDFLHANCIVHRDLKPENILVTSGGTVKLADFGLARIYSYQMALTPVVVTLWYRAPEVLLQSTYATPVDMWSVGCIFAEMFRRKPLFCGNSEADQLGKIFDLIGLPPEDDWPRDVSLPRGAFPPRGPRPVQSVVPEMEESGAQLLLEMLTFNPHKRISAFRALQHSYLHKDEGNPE
CDK4/cyclin D1, sequence (P24385 whole entry partner, species assumed): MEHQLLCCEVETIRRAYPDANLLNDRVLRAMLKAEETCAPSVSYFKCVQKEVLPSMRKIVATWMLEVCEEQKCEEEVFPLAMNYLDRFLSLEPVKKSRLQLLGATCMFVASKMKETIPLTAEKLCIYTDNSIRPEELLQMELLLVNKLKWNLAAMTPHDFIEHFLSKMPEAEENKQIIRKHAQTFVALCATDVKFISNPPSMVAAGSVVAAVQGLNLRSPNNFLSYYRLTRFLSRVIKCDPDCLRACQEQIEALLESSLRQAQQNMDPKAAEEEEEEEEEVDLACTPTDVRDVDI
The target of assay [9] is Cdk2/cyclin A (Homo sapiens, UniProt P24941). The following applies: CDK2/A; cited from earlier work.
In assay [10] the target is histone lysine methyltransferase G9a (Homo sapiens, UniProt Q96KQ7). Conditions: cited from earlier work.
histone lysine methyltransferase G9a, sequence (Q96KQ7 whole entry): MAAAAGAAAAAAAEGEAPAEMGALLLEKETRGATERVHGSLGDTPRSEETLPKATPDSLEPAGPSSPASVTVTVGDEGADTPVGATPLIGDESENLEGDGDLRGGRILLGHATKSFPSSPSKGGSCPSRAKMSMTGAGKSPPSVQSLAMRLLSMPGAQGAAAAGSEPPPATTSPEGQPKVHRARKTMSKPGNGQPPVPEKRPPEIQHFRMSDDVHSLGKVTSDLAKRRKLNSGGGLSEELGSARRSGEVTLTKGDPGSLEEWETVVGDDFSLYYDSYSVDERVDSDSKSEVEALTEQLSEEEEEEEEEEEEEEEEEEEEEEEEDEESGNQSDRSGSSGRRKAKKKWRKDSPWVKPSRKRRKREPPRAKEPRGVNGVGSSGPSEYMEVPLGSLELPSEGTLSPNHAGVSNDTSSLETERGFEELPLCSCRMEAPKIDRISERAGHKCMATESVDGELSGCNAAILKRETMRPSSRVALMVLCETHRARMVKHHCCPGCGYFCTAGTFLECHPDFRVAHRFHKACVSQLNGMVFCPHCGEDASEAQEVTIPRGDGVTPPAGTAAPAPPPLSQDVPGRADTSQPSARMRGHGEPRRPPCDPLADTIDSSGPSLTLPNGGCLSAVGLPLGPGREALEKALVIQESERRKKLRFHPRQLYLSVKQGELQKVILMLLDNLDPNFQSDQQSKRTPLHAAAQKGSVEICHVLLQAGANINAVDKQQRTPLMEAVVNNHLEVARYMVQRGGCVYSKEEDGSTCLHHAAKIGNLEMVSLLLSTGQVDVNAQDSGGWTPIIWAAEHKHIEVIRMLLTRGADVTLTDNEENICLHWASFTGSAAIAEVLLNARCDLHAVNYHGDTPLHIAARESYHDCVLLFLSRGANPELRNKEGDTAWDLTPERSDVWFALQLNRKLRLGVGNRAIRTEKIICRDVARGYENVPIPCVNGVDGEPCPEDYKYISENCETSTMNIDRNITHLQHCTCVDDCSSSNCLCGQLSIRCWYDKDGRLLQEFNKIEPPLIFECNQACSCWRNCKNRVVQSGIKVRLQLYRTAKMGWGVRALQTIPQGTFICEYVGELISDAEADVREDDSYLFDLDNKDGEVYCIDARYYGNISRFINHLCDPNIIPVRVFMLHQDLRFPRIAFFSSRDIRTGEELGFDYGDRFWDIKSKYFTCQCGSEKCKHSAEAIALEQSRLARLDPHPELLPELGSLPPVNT
Assay [11] relates to Nannochloropsis oculata. Briefly: Lipid composition of batch culture extracts (fatty acid saturation / PUFA by 1H NMR, MALDI-TOF, GC/MS). Format: cell-based.
Assay [12] has as its system Nannochloropsis salina. Briefly: 500 mL batch culture: growth, dry weight and lipid extract (gravimetric). Conditions: for Lipid productivity / Lipid content / Change in Lipids / Specific Growth Rate: N. salina; for Lipid content: dried lipid extract per dry biomass; for Change in Lipids: gravimetric, relative to averaged control without DMSO; for Specific Growth Rate: mid-exponential growth phase. Type of assay: cell-based.
Description: (§6) Batch cultures were grown in 500 mL Pyrex media bottles with stirring and air bubbling (homemade manifold with Petco air pump, 2-4% CO2). Incoming air was sterile filtered by Polyvent 4 disposable filters (Whatman, Kent, UK). […] To minimize bacterial contamination, all equipment and materials were autoclaved and media was added to flask in a Purifier Vertical Clean bench (Labconco, Kansas City, Mo.). […] The amount of DMSO is standardized for all experiments to 0.4%.
(§7) For all compound cultures, the 2 mL DMSO stock solution was added to media (without algae) first and mixed well. Control cultures were grown without DMSO. DMSO controls consisted of 0.04-1.0% DMSO. After the addition of algae and media, the container was plugged with a bug stopper vented closure cap and mixed thoroughly. Absorbance is measured immediately for Day 0 analysis. Afterward, absorbance was measured every 1-2 days with a cuvette (1 mL volume) on the Thermo Scientific Genesys 10S V is Spectrophotometer (ThermoFisher, San Jose) at 680 nm.
(§8) Batch cultures were also repeated in triplicate and compared to a control culture grown at the same time. Algae were harvested and lipids were extracted for gravimetric analysis.
Cultures were harvested at day 6 in stationary phase. Cultures were pelleted, lyophilized, and extracted side-by-side. The experiment was performed in triplicate.
The nonpolar algal extracts were harvested from 500 mL cultures when indicated on growth curves, a minimum of 3 days into stationary phase. […] Cells were crushed and nonpolar lipids were extracted by sonication (Fisher Scientific Model 120 Sonic Dismembrator, ThermoFisher, San Jose) for 1 minute in chloroform, followed by chloroform-methanol extractions, washed with PBS butter, and dried under vacuum.^55-60 The crude non-polar algae extracts were then analyzed by ^1H Nuclear Magnetic Resonance (^1H NMR) for verification of TAG presence and examination of the purity of the extract (determination of level of chlorophyll).
(§9) Cell density was monitored by measuring absorbance at 680 nm every 1-2 days.
(§10) 500-mL cultures were harvested 6 days into stationary phase based on absorbance values. Cells were concentrated by centrifugation and lyophilization to remove water. Nonpolar lipids were extracted by sonication and solvent (chloroform-methanol and PBS buffer). […] Changes in lipid levels for batch cultures were determined by crude lipid extract mass.

The subject of assay [13] is Nannochloropsis oculata. Described as above. Format: cell-based.
Assay [14] concerns Phaeodactylum tricornutum. The description is as above. The following applies: P. tricornutum, 500 mL culture, 4 μM in water, two replicates. Format: cell-based.
The test system of assay [15] is microalgae. Briefly: 500 mL batch culture (growth, gravimetric lipids), algae strain not stated. Format: cell-based.
Assay [16] concerns microalgae. Briefly: Microplate assay (growth, Nile Red lipids), algae strain not stated. Conditions: microplate screening; strain not given; listed as (−)-epigallocatechin gallate.
Assay [17] deals with FABI. Conditions: FABI (FAB1); cited from earlier work.
The subject of assay [18] is Nannochloris sp. Briefly: 500 mL batch culture: growth, dry weight and lipid extract (gravimetric). Format: cell-based.
Description: as §6, §7, §8
The nonpolar algal extracts were harvested from 500 mL cultures when indicated on growth curves, a minimum of 3 days into stationary phase.
as §9, §10
Assay [19] addresses phosphatidylinositol-specific phospholipase C (PI-PLC). The following applies: cited from earlier work.
The mark [20] stands for this setting: 40 μM, initial microplate screen, relative to control.
Setting [21] is: 200 nM, initial microplate screen, relative to control.
[22] abbreviates: Nannochloris sp., compounds tested at 20 μM.
The mark [23] stands for this setting: microplate assay, multiple concentrations.
[24] abbreviates: 40 μM, 500 mL culture, day 6 in stationary phase.
[25] abbreviates: 500 mL culture, 4 μM in water, two replicates.
[26] abbreviates: higher concentrations (>400 nM), microplate.
[27] abbreviates: 20 μM, initial microplate screen, relative to control.

Where two headings read alike, the source gives them in different places.

fatty acid amide hydrolase, sequence (O00519 whole entry): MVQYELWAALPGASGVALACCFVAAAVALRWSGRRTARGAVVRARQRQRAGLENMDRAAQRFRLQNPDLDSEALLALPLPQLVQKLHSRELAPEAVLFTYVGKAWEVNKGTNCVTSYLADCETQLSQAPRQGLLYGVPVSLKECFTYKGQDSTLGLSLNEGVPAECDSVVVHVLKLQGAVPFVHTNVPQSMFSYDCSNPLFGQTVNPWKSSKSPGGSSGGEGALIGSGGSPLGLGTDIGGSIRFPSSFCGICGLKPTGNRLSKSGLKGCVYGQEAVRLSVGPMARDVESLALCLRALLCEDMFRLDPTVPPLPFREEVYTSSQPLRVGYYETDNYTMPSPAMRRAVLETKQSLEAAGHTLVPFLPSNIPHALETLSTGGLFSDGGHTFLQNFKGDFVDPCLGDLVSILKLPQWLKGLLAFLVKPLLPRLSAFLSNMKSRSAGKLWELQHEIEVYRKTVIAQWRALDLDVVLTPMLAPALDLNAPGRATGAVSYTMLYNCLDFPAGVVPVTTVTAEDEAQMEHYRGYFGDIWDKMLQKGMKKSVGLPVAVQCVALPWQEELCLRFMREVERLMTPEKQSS

Take `O=C([O-])O.[Na+]` [sodium bicarbonate]: the “effect on PUFA levels” value in assay [1] is “increases PUFA levels”.

As usually defined, the IC50 is the midpoint of a concentration-inhibition curve. For `CCCCNC(=O)Oc1ccc(OCc2ccccc2)cc1` [FAAH Inhibitor I, 4-Benzyloxyphenyl-n-butylcarbamate], the “% Lipid increase based on Nile red fluorescence intensity” value in assay [2] (Nannochloris sp., 0.6 nM, (water), t=day 0) was 189%. For the same molecule, the “% Increase based on Nile Red Fluorescence Intensity” value in [2] (Nannochloris sp., 0.6 nM) was 189%; in assay [2] (Nannochloris sp., 49 nM), 160%; in assay [2] (Nannochloris sp., 440 nM), 161%; in assay [2] (Nannochloris sp., 1.3 μM) it was 152%. The IC50 in assay [3] is 396 nM.

For `CCN(NO)C1=CC(=O)C(=O)C=C1` [Ethyl 3,4-dephostatin, 4-[(hydroxyamino)-ethylamino]cyclohexa-3,5-diene-1,2-dione], the “% increase (lipid production)” value in assay [4] (0.0252-165.6, concentrations giving an increase: (none)) was “(none)”; in assay [5] (0.0252-165.6 nM (H2O)), 8-61%; in [5] (0.0252-165.6 nM, not marked H2O) it was 8-20%; in assay [7] (0.0252-165.6 nM (H2O)) it was 8-106%; in [7] (2-18.4 nM) it was 3-67%. Besides, the IC50 in [6] was 3200 nM. Besides, in [7] (setting [20]), the “Absorbance (percent increase)” value was −2.4%. Further, the “Nile Red percent increase” value in assay [7] (setting [20]) turned out to be 115.0%.

As to `COc1ccc(OC)c2c(=S)c3ccccc3[nH]c12` [CDK4 Inhibitor II NSC], in [8] (CDK4/cyclin D1), the IC50 is 200 nM.

As to `O=C1NC(=O)c2c1c1c3ccccc3[nH]c1c1[nH]c3cc(Br)ccc3c21` [CDK4 Inhibitor 3, 2-Bromo-12,13-dihydro-5H-indolo[2,3a]pyrrolo[3,4-c]carbazole-5,7(6H)-dione], the IC50 is more than 200000 nM in assay [9] and 6000 nM in assay [8] (CDK4/D1).

`COC(=O)C=Cc1cc(O)ccc1O` [Erbstatin analog, 2,5-Dihydroxymethylcinnamate]: in assay [2] (setting [21]), the “Absorbance (percent increase)” value is recorded as −7.6%. The “Nile Red percent increase” value in assay [2] (setting [21]) stood at 90.7%. The “Nile Red Fluorescence % Increase” value amounted to 80.2% in [2] (Nannochloris sp., compounds tested at 200 nM) and 40.5% in assay [2] (setting [22]). The IC50 in assay [10] was 2820 nM.

Regarding `O=C(O[C@@H]1Cc2c(O)cc(O)cc2O[C@@H]1c1cc(O)c(O)c(O)c1)c1cc(O)c(O)c(O)c1` [EGCG, [(2R,3R)-5,7-dihydroxy-2-(3,4,5-trihydroxy-phenyl)-3,4-dihydro-2H-chromen-3-yl] 3,4,5-trihydroxybenzoate], the “Nile Red Fluorescence % Increase” value in [4] (N. oculata, compounds tested at 200 nM, initial screening, p<0.05) was found to be 207.5%; in [2] (setting [22]), 214.9%. In addition, the “effect on lipid production / lipid levels” value in assay [4] (setting [23]), in [5] (setting [23]), in assay [2] (setting [23]) and in assay [7] (setting [23]) was “lipid production increased” in each case. Further, in [11] (4 μM, 1H NMR, Normal 24), the “SFAs (% of total lipids)” value is on record as 57 % of total lipids. The “n3 PUFAs (% of UFAs)” value in assay [11] (4 μM, 1H NMR, Normal 37) is reported as 65 % of UFAs. Also, in [11] (4 μM, 1H NMR, Normal 63), the “All other PUFAs and MUFAs (% of UFAs)” value is 35 % of UFAs. Further, in [11] (4 μM, 1H NMR, Normal 76), the “UFAs (% of total lipids)” value was 43 % of total lipids. The “SFAs (%)” value in [11] (N. oculata, 400 nM, n=1, Normal 0 ± 1) is recorded as 10%. The “MUFAs (%)” value in assay [11] (N. oculata, 400 nM, n=1, Normal 4 ± 7) is on record as 5%. In addition, the “n3 PUFAs (%)” value in assay [11] (N. oculata, 400 nM, n=1, Normal 28 ± 4) is 20%. The “PUFAs (%)” value in [11] (N. oculata, 400 nM, n=1, Normal 96 ± 7) turned out to be 85%. The Absorbance at harvest came to 1.41 ± 0.08 in [12] (setting [24]) and 1.855 ± 0.142 in assay [13] (N. oculata, 400 nM EGCG, n=4). Further, the “Dry weight” value is reported as 337.40 ± 62.55 mg in [12] (setting [24]) and 290.7 ± 34.5 in assay [13] (N. oculata, 400 nM EGCG, n=4). The “Extract Weight” value in assay [12] (setting [24]) was found to be 94.77 ± 9.47 mg; in assay [13] (N. oculata, 400 nM EGCG, n=4), 62.3 ± 21.6. For the same molecule, in assay [12] (setting [24]), the “Number of Cells” value is 1.36E+09. For the same molecule, the “Recovered Weight” value in [12] (setting [24]) is listed as 330.03 ± 78.14 mg. Besides, the “effect on growth and lipid levels” value in assay [12] (500 mL batch culture) is “increased growth and lipid extract levels”; in assay [13] (500 mL batch culture), “increased growth and lipid extract levels”; in assay [15] (500 mL batch cultures (Table 30)) it was “positive increases in growth and lipid levels”; in assay [18] (500 mL batch culture), “increased growth and lipid extract levels”. Further, the Lipid productivity in assay [12] (setting [25]) is 7.1 ± 1.2 mgL^−1day^−1; in [12] (500 mL culture, 40 μM), 6.3 ± 2.2 mgL^−1day^−1; in assay [13] (N. oculata, 500 mL culture, 4 μM) it was 4.9 ± 1.7 mgL^−1day^−1; in [14] it was 4.4 ± 2.4 mgL^−1day^−1; in [18] (Nannochloris sp., 500 mL culture, 40 nM) it was 4.3 ± 0.8 mgL^−1day^−1. Moreover, the Lipid content in [12] (setting [25]) was determined as 32.4 ± 0.1 % w/w; in assay [12] (500 mL culture, 40 μM), 23.1 ± 10.6 % w/w; in [13] (N. oculata, 500 mL culture, 4 μM, dried lipid extract per dry biomass), 20.6 ± 6.9 % w/w; in assay [14] (dried lipid extract per dry biomass), 17.2 ± 1.3 % w/w. The “Change in Lipids” value in assay [12] (setting [25]) was 46%; in assay [12] (500 mL culture, 40 μM), 18%; in assay [13] (N. oculata, 500 mL culture, 4 μM, gravimetric, relative to averaged control without DMSO), 41%; in assay [14] (gravimetric, relative to averaged control without DMSO) it was 6%; in assay [18] (Nannochloris sp., 500 mL culture, 40 nM, gravimetric, relative to averaged control without DMSO), 39%. For the same molecule, the “Specific Growth Rate” value in assay [12] (setting [25]) worked out at 0.24 ± 0.01 day⁻¹; in [12] (500 mL culture, 40 μM), 0.22 ± 0.06 day⁻¹; in assay [13] (N. oculata, 500 mL culture, 4 μM, mid-exponential growth phase), 0.17 ± 0.03 day⁻¹; in [14] (mid-exponential growth phase) it was 0.19 ± 0.02 day⁻¹; in [18] (Nannochloris sp., 500 mL culture, 40 nM, mid-exponential growth phase), 0.17 ± 0.03 day⁻¹. For the same molecule, the “effect on lipid levels” value in assay [13] (batch culture, combined with sodium bicarbonate addition) was “increases lipid levels”. The “% Increase based on Nile Red Fluorescence Intensity” value in [5] (N. salina, 493 nM, DMSO delivery, added t=day 0) came to 87%. In addition, the lipid increase in [5] (setting [26]), in assay [2] (setting [26]) and in [7] (setting [26]) was more than 100% throughout. In addition, the “increase of lipids by dry weight” value in [15] (500 mL cultures (FIG. 19)) is recorded as more than 40%. Also, in [16], the “increase in (intracellular) lipid levels, Nile Red” value is recorded as “more than 100%”. The “Nile Red percent increase” value in assay [2] (6 nM, dose-response microplate screen) amounted to 436%; in [2] (18.6 nM, dose-response microplate screen) it was 199%; in assay [2] (55 nM, dose-response microplate screen), 107%; in assay [2] (setting [21]), 92.1%; in assay [2] (setting [27]), 92.5%. The “Absorbance (percent increase)” value in assay [2] (setting [21]) is on record as −1.0%; in [2] (setting [27]) it was “+1.9%”. For the same molecule, the 50% inhibitory concentration (IC50) in [17] is 200 nM. Further, the “% Inc” value in assay [7] (increase of lipid production, P. tricornutum, best conc. 10 nM) is on record as 45.03%.

With `CCCCCCCCCCCCCCCCCCOCC(COP(=O)([O-])OCC[N+](C)(C)C)OC` (centres unmarked) [ET-18-OCH3, 2-Methoxy-3-(octadecyloxy)propyl 2-(trimethylammonio)ethyl phosphate], the “% change in abs” value in [4] (N. oculata, 10 μM) was 5.73%; in assay [4] (N. oculata, 40 μM), −5.90%. The “% in NR fl” value in assay [4] (N. oculata, 10 μM) came to 50.05%; in [4] (N. oculata, 40 μM) it was 57.25%. Also, the IC50 in [19] is 9600 nM.

The values are drawn from patent publication US8778643B2, “Methods for increasing lipid levels and producing triacylglycerols in algae” (priority 2012, dated 2014).
